From patent US6440440B1, “Biocidal benzylbiphenyl derivatives” (priority 1998, dated 2002)

Tests used:
Assay type in all cases: cell-based
[1] = tested on: Escherichia coli; assay: Primary bacteria screening; parameters: key: score: 3 = complete inhibition of growth, 2 = growth partially controlled; settings: test compound concentration 500 μMol in tryptose broth agar, 27° C.
Description: (§1) The stock solutions with the test compounds were pipetted into multiwell plates and mixed with warm tryptose broth agar (2.6%) in order to reach a test compound concentration of 500 μMol. The medium was allowed to cool and subsequently inoculated with the bacteria. Wells were placed in an incubator at 27° C. and a relative humidity of 70%. After sufficient growth of the untreated cultures, the test was evaluated.
(§2) 3: complete inhibition of bacterial growth
(§3) 2: bacterial growth partially controlled

[2] = tested on: Pseudomonas aeruginosa; assay: Primary bacteria screening; parameters: key: score: 3 = complete inhibition of growth, 2 = growth partially controlled; settings: test compound concentration 500 μMol in tryptose broth agar, 27° C.
Description: as §1, §2, §3

[3] = tested on: Debaryomyces hansenii; assay: Screening against yeasts; parameters: key: 3 = complete inhibition of growth, 2 = growth partially controlled; settings: test compound concentration 500 μM
Description: as §1, §2, §3
(§4) A number of compounds of formula (I) were also tested in a screening against certain The test conditions are the same as described in biological example C.1. The concentration of the test compound was also 500 μmol, and the scoring system used was also the same.
Debaryomyces hansenii (19)

[4] = tested on: Rhodotorula rubra; assay: Screening against yeasts; parameters: key: 3 = complete inhibition of growth, 2 = growth partially controlled; settings: test compound concentration 500 μmol
Description: as §1, §2, §3, §4

[5] = tested on: Sporobolomyces roseus; assay: Screening against yeasts; parameters: key: 3 = complete inhibition of growth, 2 = growth partially controlled; settings: test compound concentration 500 μmol
Description: as §1, §2, §3, §4
Sporobolomyces roseus (21)

[6] = tested on: Providencia rettgeri; assay: Poison plate assay, combinations with BAC; settings: for Calculated activity: Limpel's formula
Description: Biocidal activity against bacterial/yeast growth was determined with the poison plate assay. To obtain the required concentrations of the test compound, calculated amounts of stock solutions (DMSO) were pipetted into multi-well plates. Tryptose agar (except for Rhodotorula: PDA) was added aseptically and uniform distribution was obtained by shaking. Each plate was inoculated with a bacterial/yeast suspension. After incubation at 27° C. and 70% relative humidity, for a period long enough to allow complete growth of controls, percentage activity as compared to the control was scored.
Possible synergy was investigated using Limpel's formula (Richter, D. L., Pestic. Sci. 1987, 19: 309-315): [formula]
where EC is the expected additive response, or calculated activity, X is the observed percentage control when compound A is applied alone and Y is the observed percentage control when compound B is applied alone. Synergy was considered to occur when the observed effect, or measured activity, of a combination of both compounds was greater than the corresponding EC value.
The table C.7 to C.8 below enumerate the measured and calculated activities of BAC and compounds 20, 42 and 40 when tested as a single test compound or as a combination against Providencia rettgeri. BAC (benzalconium chloride) is a well-bacteride and was tested at a concentration of 40 and 80 μmol. Compounds 20, 40 and 42 were tested at a concentration of 10, 20, 40, 80 and 160 μmol. When a synergistic effect was observed, the “measured” and “calculated” activity are indicated with a bold typeface.

Cl.Cl.NCCCN1CCC(C(c2ccccc2)c2ccc(-c3ccccc3)cc2)CC1.O (stereo not drawn) [Co. No. 42]
3: E. coli (growth inhibition score) [1] | P. aeruginosa (growth inhibition score) [2] | Test yeast (19) Debaryomyces hansenii (score) [3] | Test yeast (20) Rhodotorula rubra (score) [4] | Test yeast (21) Sporobolomyces roseus (score) [5]
0%: Calculated activity ([6]; BAC 40 μmol + compound 10 μmol) | Calculated activity ([6]; BAC 40 μmol + compound 20 μmol) | Measured activity ([6]; compound alone 10 μmol) | Measured activity ([6]; compound alone 20 μmol)
30%: Calculated activity ([6]; BAC 40 μmol + compound 40 μmol) | Measured activity ([6]; compound alone 40 μmol)
50%: Measured activity ([6]; combination BAC 40 μmol + compound 10 μmol) | Measured activity ([6]; combination BAC 40 μmol + compound 20 μmol)
100%: Calculated activity ([6]; BAC 40 μmol + compound 160 μmol) | Calculated activity ([6]; BAC 80 μmol + compound 10 μmol) | Calculated activity ([6]; BAC 80 μmol + compound 20 μmol) | Calculated activity ([6]; BAC 80 μmol + compound 40 μmol) | Calculated activity ([6]; BAC 80 μmol + compound 80 μmol) | Calculated activity ([6]; BAC 80 μmol + compound 160 μmol) | Measured activity ([6]; combination BAC 40 μmol + compound 40 μmol) | Measured activity ([6]; combination BAC 40 μmol + compound 80 μmol) | Measured activity ([6]; combination BAC 40 μmol + compound 160 μmol) | Measured activity ([6]; combination BAC 80 μmol + compound 10 μmol) | Measured activity ([6]; combination BAC 80 μmol + compound 20 μmol) | Measured activity ([6]; combination BAC 80 μmol + compound 40 μmol) | Measured activity ([6]; combination BAC 80 μmol + compound 80 μmol) | Measured activity ([6]; combination BAC 80 μmol + compound 160 μmol) | Measured activity ([6]; compound alone 160 μmol)
90%: Calculated activity ([6]; BAC 40 μmol + compound 80 μmol) | Measured activity ([6]; compound alone 80 μmol)

Br.Br.COc1ccc(C(c2ccc(-c3ccccc3)cc2)C2CCN(C3CCNCC3)CC2)cc1 (stereo not drawn) [compound 12]
3: E. coli (growth inhibition score) [1] | Test yeast (19) Debaryomyces hansenii (score) [3] | Test yeast (21) Sporobolomyces roseus (score) [5]
2: P. aeruginosa (growth inhibition score) [2] | Test yeast (20) Rhodotorula rubra (score) [4]

Br.Br.c1ccc(-c2ccc(C(CCNC3CCNCC3)c3ccccc3)cc2)cc1 (stereo not drawn) [compound 50]
1: P. aeruginosa (growth inhibition score) [2]
3: E. coli (growth inhibition score) [1] | Test yeast (19) Debaryomyces hansenii (score) [3] | Test yeast (20) Rhodotorula rubra (score) [4] | Test yeast (21) Sporobolomyces roseus (score) [5]

Cl.Fc1ccc(C(c2ccc(-c3ccccc3)cc2)C2CCN(C3CCNCC3)CC2)cc1 (stereo not drawn) [compound 11]
3: E. coli (growth inhibition score) [1] | P. aeruginosa (growth inhibition score) [2] | Test yeast (19) Debaryomyces hansenii (score) [3] | Test yeast (21) Sporobolomyces roseus (score) [5]
1: Test yeast (20) Rhodotorula rubra (score) [4]
